In patent publication US20250236589A1, “THERAPEUTIC PHENETHYLAMINE COMPOSITIONS AND METHODS OF USE” (Cybin IRL Limited, priority 2022, published 2025):
Where two headings read alike, the source gives them in different places.

Legend:
Adrenergic β2 (h) = Adrenergic β2 (h) (Homo sapiens (Human), UniProt P07550); experiment: Off-target screen, radioligand displacement at 10 μM; assay type: binding; conditions: antagonist radioligand
Adenosine A3 (h) = Adenosine A3 (h) (Homo sapiens (Human), UniProt P0DMS8); experiment: as above; conditions: read-out: binding at 10 μM
κ-opioid (h) = κ-opioid (h) (Homo sapiens (Human), UniProt P41145); experiment: as above; conditions: read-out: binding at 10 μM
PPARγ (h) = PPARγ (h) (Homo sapiens (Human), UniProt P37231); experiment: as above; conditions: read-out: binding at 10 μM
TNF-α (h) = experiment: as above; assay type: binding, human
Cannabinoid CB1 (h) = Cannabinoid CB1 (h) (Homo sapiens (Human), UniProt P21554); experiment: as above; assay type: binding
Adenosine A1 (h) = Adenosine A1 (h) (Homo sapiens (Human), UniProt P30542); experiment: as above; conditions: read-out: binding at 10 μM
D4.4 (h) = D4.4 (h) (Homo sapiens (Human), UniProt P21917); experiment: as above; conditions: read-out: binding at 10 μM
[1] = system: BZD (central) (rat cortex); experiment: as above; assay type: binding
5-HT2C receptor = 5-HT2C receptor (Homo sapiens (Human), UniProt P28335); experiment: 5-HT2C functional assay, IP1 (IPOne); assay type: cell-based; conditions: for Emax: IP1 assay, relative to 5-HT
Protocol: (§1) 5-HT2A,2B,2C receptor-mediated Gq activation—canonical signaling pathways—[phosphoinositide hydrolysis leading to the production of inositol phosphate 1 (IP1, IPOne, Cisbio assay) or direct G-protein activation using TRUPATH technology]were measured as previously described (Porter, R. H. P., Benwell, K. R., Lamb, H., Malcolm, C. S., Allen, N. F., Revell, D. F., Adams, D. R. and Sheardown, M. J., 1999, Functional characterization of agonists at recombinant human 5-HT2a, 5HT2b and 5-HT2c receptors in CHO-K1 cells, Brit J Pharmacol 128, 13; Olsen, R. H. J., DiBerto, J. F., English, J. G. et al. TRUPATH, an open-source biosensor platform for interrogating the GPCR transducerome. […] Briefly, for the IPOne assay, for 5-HT2ARs, CHO-K1 or HEK-293 cells were incubated with test articles and 5-HT (positive control) in stimulation buffer containing LiCl. After incubation, cells were lysed and fluorescence acceptor and donor were added. FRET was measured after 60 min at room temperature using a microplate reader (Envision, Perkin Elmer). TRUPATH assays followed a similar workflow, except that different reagents were used, and LiCl was not included in the samples; the protocol was based on the report by Olsen, R. H. J. et al., cited above.

5-HT2A receptor = 5-HT2A receptor (Homo sapiens (Human), UniProt P28223); experiment: 5-HT2A functional assay, IP1 (IPOne); assay type: cell-based; conditions: for Emax: relative to 5-HT
Protocol: After incubation, cells were lysed and fluorescence acceptor and donor were added. FRET was measured after 60 min at room temperature using a microplate reader (Envision, Perkin Elmer). TRUPATH assays followed a similar workflow, except that different reagents were used, and LiCl was not included in the samples; the protocol was based on the report by Olsen, R. H. J. et al., cited above.

Melanocortin MC4 (h) = Melanocortin MC4 (h) (Homo sapiens (Human), UniProt P32245); experiment: Off-target screen, radioligand displacement at 10 μM; conditions: read-out: binding at 10 μM
Endothelin ETB (h) = Endothelin ETB (h) (Homo sapiens (Human), UniProt P24530); experiment: as above; conditions: read-out: binding at 10 μM
[2] = molecular target: CXCR2 (Interleukin-8B) (h) (Homo sapiens (Human), UniProt P25025); experiment: as above; conditions: read-out: binding at 10 μM
5-HT transporter (h) = 5-HT transporter (h) (Homo sapiens (Human), UniProt P31645); experiment: as above; assay type: binding
[3] = system: BB (nonselective) (rat cortex); experiment: as above; assay type: binding
Prostaglandin EP2 (h) = Prostaglandin EP2 (h) (Homo sapiens (Human), UniProt P43116); experiment: as above; conditions: read-out: binding at 10 μM
[4] = system: P2X (ATP) (rat urinary bladder); experiment: as above; assay type: binding
Dopamine D3 (h) = Dopamine D3 (h) (Homo sapiens (Human), UniProt P35462); experiment: as above; assay type: binding
dopamine transporter (h) = dopamine transporter (h) (Homo sapiens (Human), UniProt Q01959); experiment: as above; conditions: read-out: binding at 10 μM
human 5-HT2B receptor = human 5-HT2B receptor (Homo sapiens (Human), UniProt P41595); experiment: 5-HT2B functional assay, IP1 (IPOne); assay type: cell-based; conditions: for Emax: IP1 assay, relative to 5-HT
Protocol: as §1

Adenosine A2A (h) = Adenosine A2A (h) (Homo sapiens (Human), UniProt P29274); experiment: Off-target screen, radioligand displacement at 10 μM; assay type: binding
Tachykinin NK1 (h) = Tachykinin NK1 (h) (Homo sapiens (Human), UniProt P25103); experiment: as above; conditions: read-out: binding at 10 μM
[5] = system: Chloride Cl— channel (GABA-gated) (rat cortex); experiment: as above; assay type: binding
Neuropeptide Y Y1 (h) = Neuropeptide Y Y1 (h) (Homo sapiens (Human), UniProt P25929); experiment: as above; conditions: read-out: binding at 10 μM
Tachykinin NK2 (h) = Tachykinin NK2 (h) (Homo sapiens (Human), UniProt P21452); experiment: as above; conditions: read-out: binding at 10 μM
[6] = molecular target: Cholecystokinin CCK2 (CCKB) (h) (Homo sapiens (Human), UniProt P32239); experiment: as above; conditions: read-out: binding at 10 μM
[7] = molecular target: BZD (peripheral) (rat heart) (Rattus norvegicus (Rat), UniProt P16257); experiment: as above; conditions: read-out: binding at 10 μM
μ-opioid (h) = μ-opioid (h) (Homo sapiens (Human), UniProt P35372); experiment: as above; assay type: binding
[8] = read-out: inhibition of radioligand bound at 10 μM
[9] = antagonist radioligand, read-out: inhibition at 10 μM

Chain of human 5-HT2B receptor (P41595 whole entry, looked up): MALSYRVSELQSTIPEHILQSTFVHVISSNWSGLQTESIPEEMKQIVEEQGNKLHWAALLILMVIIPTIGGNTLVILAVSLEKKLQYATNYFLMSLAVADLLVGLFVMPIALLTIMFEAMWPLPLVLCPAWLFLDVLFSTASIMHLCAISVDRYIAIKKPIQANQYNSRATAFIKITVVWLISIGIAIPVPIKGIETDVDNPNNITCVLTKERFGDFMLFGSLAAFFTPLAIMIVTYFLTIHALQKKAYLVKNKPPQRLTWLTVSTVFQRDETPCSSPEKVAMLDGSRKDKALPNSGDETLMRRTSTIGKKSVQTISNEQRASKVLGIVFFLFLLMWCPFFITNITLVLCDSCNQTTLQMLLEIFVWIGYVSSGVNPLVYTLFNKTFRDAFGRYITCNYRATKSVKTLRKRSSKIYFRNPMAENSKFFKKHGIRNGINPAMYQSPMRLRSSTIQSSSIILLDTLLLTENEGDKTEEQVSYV
Chain of 5-HT2C receptor (P28335 whole entry, looked up): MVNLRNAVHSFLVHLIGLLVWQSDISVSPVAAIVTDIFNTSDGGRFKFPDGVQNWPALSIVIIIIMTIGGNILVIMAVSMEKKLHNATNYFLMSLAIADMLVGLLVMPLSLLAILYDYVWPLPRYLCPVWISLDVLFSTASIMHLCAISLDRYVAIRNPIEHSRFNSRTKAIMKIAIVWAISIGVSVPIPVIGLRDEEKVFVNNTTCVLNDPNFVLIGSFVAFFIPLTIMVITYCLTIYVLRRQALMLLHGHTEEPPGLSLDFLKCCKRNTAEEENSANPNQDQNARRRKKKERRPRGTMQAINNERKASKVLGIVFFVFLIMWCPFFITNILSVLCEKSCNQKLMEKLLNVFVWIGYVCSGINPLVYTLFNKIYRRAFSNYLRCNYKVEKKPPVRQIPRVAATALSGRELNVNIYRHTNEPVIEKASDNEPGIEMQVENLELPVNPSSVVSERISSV
Chain of Melanocortin MC4 (h) (P32245 whole entry, looked up): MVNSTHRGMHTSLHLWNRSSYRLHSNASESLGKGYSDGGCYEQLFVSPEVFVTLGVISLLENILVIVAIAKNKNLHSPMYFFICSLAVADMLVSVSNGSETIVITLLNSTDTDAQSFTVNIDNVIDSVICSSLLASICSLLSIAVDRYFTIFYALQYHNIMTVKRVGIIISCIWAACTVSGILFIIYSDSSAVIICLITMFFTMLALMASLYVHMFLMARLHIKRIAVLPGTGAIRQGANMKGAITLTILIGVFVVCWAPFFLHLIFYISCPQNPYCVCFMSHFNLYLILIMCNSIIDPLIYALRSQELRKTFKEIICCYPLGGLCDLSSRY
Chain of Neuropeptide Y Y1 (h) (P25929 whole entry, looked up): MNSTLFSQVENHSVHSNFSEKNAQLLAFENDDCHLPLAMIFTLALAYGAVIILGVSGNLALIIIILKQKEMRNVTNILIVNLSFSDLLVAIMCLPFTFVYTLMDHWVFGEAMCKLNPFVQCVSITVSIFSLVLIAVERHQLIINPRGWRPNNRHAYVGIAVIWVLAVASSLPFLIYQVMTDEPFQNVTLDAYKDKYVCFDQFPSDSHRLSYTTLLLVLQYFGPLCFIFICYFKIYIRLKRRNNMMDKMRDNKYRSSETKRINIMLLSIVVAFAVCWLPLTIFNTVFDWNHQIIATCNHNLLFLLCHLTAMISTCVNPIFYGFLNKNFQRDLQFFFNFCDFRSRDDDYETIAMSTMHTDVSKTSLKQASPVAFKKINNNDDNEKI
Chain of Dopamine D3 (h) (P35462 whole entry, looked up): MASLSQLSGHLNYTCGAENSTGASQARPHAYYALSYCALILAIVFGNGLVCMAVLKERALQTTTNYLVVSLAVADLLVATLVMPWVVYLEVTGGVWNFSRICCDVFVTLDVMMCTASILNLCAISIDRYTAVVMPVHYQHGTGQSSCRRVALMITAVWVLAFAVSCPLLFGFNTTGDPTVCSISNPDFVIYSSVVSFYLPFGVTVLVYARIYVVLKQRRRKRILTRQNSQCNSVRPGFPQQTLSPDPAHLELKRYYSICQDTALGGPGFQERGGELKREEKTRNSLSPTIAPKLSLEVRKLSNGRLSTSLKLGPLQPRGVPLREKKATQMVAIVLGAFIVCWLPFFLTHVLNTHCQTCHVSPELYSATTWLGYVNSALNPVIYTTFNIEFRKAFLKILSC
Chain of Tachykinin NK1 (h) (P25103 whole entry, looked up): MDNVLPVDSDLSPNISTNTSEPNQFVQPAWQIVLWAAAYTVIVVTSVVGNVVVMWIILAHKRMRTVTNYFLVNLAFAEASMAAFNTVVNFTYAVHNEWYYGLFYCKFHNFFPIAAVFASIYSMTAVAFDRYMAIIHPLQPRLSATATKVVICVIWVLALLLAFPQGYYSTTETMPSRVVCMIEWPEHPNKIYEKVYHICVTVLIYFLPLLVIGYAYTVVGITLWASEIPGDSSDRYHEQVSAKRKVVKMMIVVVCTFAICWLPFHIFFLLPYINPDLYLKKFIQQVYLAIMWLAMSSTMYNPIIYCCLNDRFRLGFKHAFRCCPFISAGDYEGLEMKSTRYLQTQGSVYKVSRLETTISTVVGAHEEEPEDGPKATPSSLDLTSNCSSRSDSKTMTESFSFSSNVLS
Chain of D4.4 (h) (P21917 whole entry, looked up): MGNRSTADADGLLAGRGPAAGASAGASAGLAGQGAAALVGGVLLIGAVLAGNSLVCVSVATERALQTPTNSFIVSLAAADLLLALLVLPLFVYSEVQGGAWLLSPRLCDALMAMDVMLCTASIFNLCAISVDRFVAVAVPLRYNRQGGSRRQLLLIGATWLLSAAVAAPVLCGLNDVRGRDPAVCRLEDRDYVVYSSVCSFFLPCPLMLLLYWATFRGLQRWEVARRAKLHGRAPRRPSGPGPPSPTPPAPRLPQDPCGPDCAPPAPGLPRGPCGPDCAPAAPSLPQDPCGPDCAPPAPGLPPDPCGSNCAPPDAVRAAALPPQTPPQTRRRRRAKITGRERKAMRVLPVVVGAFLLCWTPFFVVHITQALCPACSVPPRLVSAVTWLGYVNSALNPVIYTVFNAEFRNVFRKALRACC
Chain of Adrenergic β2 (h) (P07550 whole entry, looked up): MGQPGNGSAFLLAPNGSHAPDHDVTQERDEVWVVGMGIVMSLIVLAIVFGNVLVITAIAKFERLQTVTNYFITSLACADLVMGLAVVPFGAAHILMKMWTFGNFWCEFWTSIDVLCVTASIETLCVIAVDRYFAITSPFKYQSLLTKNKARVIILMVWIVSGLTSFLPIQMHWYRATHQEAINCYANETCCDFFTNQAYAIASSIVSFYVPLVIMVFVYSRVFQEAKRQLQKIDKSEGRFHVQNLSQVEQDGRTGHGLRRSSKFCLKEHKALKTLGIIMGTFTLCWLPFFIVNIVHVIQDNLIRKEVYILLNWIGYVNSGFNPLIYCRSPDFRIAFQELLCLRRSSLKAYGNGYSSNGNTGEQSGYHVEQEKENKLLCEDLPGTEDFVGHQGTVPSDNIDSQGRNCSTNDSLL
Chain of Adenosine A3 (h) (P0DMS8 whole entry, looked up): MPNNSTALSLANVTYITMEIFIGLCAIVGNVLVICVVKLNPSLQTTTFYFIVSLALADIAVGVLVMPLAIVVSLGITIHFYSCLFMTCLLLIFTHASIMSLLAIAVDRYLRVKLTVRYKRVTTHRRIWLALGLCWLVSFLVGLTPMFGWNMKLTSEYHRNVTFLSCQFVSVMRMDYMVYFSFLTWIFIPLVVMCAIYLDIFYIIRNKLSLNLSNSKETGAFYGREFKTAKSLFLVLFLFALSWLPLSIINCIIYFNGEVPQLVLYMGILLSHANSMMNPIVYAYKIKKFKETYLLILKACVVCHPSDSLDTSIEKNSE
Chain of Adenosine A2A (h) (P29274 whole entry, looked up): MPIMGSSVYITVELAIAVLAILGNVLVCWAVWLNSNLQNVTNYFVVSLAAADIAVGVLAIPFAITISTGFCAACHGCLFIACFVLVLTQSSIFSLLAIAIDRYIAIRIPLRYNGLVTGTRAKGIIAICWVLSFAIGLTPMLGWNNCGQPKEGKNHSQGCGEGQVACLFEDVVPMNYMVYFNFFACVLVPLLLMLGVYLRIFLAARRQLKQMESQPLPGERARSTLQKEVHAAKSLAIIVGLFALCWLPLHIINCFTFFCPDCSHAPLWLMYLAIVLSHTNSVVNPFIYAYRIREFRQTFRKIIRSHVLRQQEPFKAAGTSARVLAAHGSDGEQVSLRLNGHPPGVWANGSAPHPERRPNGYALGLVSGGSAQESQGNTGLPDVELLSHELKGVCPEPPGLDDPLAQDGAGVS
Chain of Prostaglandin EP2 (h) (P43116 whole entry, looked up): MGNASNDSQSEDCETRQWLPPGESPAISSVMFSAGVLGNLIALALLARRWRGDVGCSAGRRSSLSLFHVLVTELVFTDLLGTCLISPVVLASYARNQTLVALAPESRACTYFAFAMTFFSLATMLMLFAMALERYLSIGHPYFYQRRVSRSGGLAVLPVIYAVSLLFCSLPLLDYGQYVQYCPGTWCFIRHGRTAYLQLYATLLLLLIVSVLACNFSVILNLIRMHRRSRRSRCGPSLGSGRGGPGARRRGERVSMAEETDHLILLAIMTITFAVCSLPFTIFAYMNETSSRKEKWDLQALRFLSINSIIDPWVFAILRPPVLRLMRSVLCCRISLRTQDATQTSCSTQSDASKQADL
Chain of CXCR2 (Interleukin-8B) (h) (P25025 whole entry, looked up): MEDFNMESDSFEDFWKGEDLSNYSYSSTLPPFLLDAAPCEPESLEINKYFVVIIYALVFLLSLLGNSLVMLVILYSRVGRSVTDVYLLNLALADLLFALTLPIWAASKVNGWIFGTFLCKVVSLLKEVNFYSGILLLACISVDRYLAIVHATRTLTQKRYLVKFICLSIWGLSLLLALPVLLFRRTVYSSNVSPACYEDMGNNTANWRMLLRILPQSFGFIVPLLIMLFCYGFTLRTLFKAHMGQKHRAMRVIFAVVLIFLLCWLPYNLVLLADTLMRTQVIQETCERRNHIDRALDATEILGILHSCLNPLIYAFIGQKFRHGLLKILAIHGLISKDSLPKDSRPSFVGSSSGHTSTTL
Chain of BZD (peripheral) (rat heart) (P16257 whole entry, looked up): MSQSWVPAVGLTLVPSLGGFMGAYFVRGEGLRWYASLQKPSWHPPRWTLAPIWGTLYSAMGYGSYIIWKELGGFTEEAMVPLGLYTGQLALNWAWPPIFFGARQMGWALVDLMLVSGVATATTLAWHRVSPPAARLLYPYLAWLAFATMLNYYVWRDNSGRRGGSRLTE

COc1cc(CC(C)N)c(OC)cc1I (racemic) [DOI, (±)-2,5-dimethoxy-4-iodoamphetamine, reference compound]
inhibition at 10 µM (Adrenergic β2 (h)): ≥ 80%
inhibition at 10 µM (Adenosine A3 (h)): < 50%
inhibition at 10 µM (κ-opioid (h)): < 50%
inhibition at 10 µM (PPARγ (h)): < 50%
binding at 10 μM (TNF-α (h)): NB (inhibited less than 50% of radioligand bound to them, and therefore it can be concluded they do not bind (“no binding,” NB))
inhibition at 10 µM (Cannabinoid CB1 (h); read-out: binding at 10 μM): < 50%
inhibition at 10 µM (Cannabinoid CB1 (h); [8]): < 50%
inhibition at 10 µM (Adenosine A1 (h)): < 50%
inhibition at 10 µM (D4.4 (h)): < 50%
binding at 10 μM [1]: NB (inhibited less than 50% of radioligand bound to them, and therefore it can be concluded they do not bind (“no binding,” NB))
EC50 (5-HT2C receptor): 8 nM
Emax (5-HT2C receptor): ~108%
Emax (5-HT2A receptor; IP1 assay): ~86%
inhibition at 10 µM (Melanocortin MC4 (h)): < 50%
inhibition at 10 µM (Endothelin ETB (h)): < 50%
inhibition at 10 µM [2]: < 50%
inhibition at 10 µM (5-HT transporter (h); [9]): 76.2%
binding at 10 μM [3]: NB (inhibited less than 50% of radioligand bound to them, and therefore it can be concluded they do not bind (“no binding,” NB))
inhibition at 10 µM (Prostaglandin EP2 (h)): < 50%
binding at 10 μM [4]: NB (inhibited less than 50% of radioligand bound to them, and therefore it can be concluded they do not bind (“no binding,” NB))
inhibition at 10 µM (Dopamine D3 (h); read-out: binding at 10 μM): < 50%
inhibition at 10 µM (dopamine transporter (h)): < 50%
EC50 (human 5-HT2B receptor): 16 nM
Emax (human 5-HT2B receptor): ~98%
binding at 10 μM (Adenosine A2A (h)): NB (inhibited less than 50% of radioligand bound to them, and therefore it can be concluded they do not bind (“no binding,” NB))
inhibition at 10 µM (Tachykinin NK1 (h)): < 50%
Decreased binding [5]: Decreased binding by ~38%
inhibition at 10 µM (Neuropeptide Y Y1 (h)): < 50%
inhibition at 10 µM (Tachykinin NK2 (h)): < 50%
inhibition at 10 µM [6]: < 50%
inhibition at 10 µM [7]: < 50%
inhibition at 10 µM (μ-opioid (h); agonist radioligand, read-out: inhibition at 10 μM): 65%

COc1cc(SC(F)(F)F)c(OC)cc1CCN [Compound I-1, 2-(2,5-dimethoxy-4-((trifluoromethyl)thio)phenyl)ethan-1-amine]
inhibition at 10 µM (Adrenergic β2 (h)): 52.2%
inhibition at 10 µM (Adenosine A3 (h)): < 50%
inhibition at 10 µM (κ-opioid (h)): < 50%
inhibition at 10 µM (PPARγ (h)): < 50%
binding at 10 μM (TNF-α (h)): NB (inhibited less than 50% of radioligand bound to them, and therefore it can be concluded they do not bind (“no binding,” NB))
inhibition at 10 µM (Cannabinoid CB1 (h); read-out: binding at 10 μM): < 50%
inhibition at 10 µM (Cannabinoid CB1 (h); [8]): < 50%
inhibition at 10 µM (Adenosine A1 (h)): < 50%
inhibition at 10 µM (D4.4 (h)): < 50%
binding at 10 μM [1]: NB (inhibited less than 50% of radioligand bound to them, and therefore it can be concluded they do not bind (“no binding,” NB))
EC50 (5-HT2C receptor): 7.3 nM
activation selectivity for 5-HT2C over 5-HT2B (5-HT2C receptor; EC50, IP1): ~12 fold
Emax (5-HT2C receptor): ~99%
5-HT2AR agonist activity (in words) (5-HT2A receptor): pronounced agonists
EC50 (5-HT2A receptor): 4.1 nM
activation selectivity for 5-HT2A over 5-HT2B (5-HT2A receptor; EC50, IP1): ~21 fold
2A/2B EC50 Selectivity (5-HT2A receptor; IP1 assay): 21.5
Emax (5-HT2A receptor; IP1 assay): ~86%
inhibition at 10 µM (Melanocortin MC4 (h)): < 50%
inhibition at 10 µM (Endothelin ETB (h)): < 50%
inhibition at 10 µM [2]: < 50%
inhibition at 10 µM (5-HT transporter (h); read-out: binding at 10 μM): < 50%
binding at 10 μM [3]: NB (inhibited less than 50% of radioligand bound to them, and therefore it can be concluded they do not bind (“no binding,” NB))
inhibition at 10 µM (Prostaglandin EP2 (h)): < 50%
binding at 10 μM [4]: NB (inhibited less than 50% of radioligand bound to them, and therefore it can be concluded they do not bind (“no binding,” NB))
inhibition at 10 µM (Dopamine D3 (h); [9]): 70.4%
inhibition at 10 µM (dopamine transporter (h)): < 50%
EC50 (human 5-HT2B receptor): 88 nM
Emax (human 5-HT2B receptor): ~84%
binding at 10 μM (Adenosine A2A (h)): NB (inhibited less than 50% of radioligand bound to them, and therefore it can be concluded they do not bind (“no binding,” NB))
inhibition at 10 µM (Tachykinin NK1 (h)): < 50%
Decreased binding [5]: Decreased binding by ~48%
inhibition at 10 µM (Neuropeptide Y Y1 (h)): < 50%
inhibition at 10 µM (Tachykinin NK2 (h)): < 50%
inhibition at 10 µM [6]: < 50%
inhibition at 10 µM [7]: < 50%
inhibition at 10 µM (μ-opioid (h); read-out: binding at 10 μM): < 50%
